Results taken from patent US20260098008A1, “COVALENT, CHEMOGENETIC ACTIVATORS FOR K2P POTASSIUM CHANNELS AND USES THEREOF” (THE REGENTS OF THE UNIVERSITY OF CALIFORNIA, priority 2022, published 2026).
Changes are numbered by the printed parent chain.

What was measured:
TREK-1^CG* = target: T1, TREK-1^CG* (Mus musculus, UniProt P97438, S146C); experiment: Whole-cell patch clamp in transfected HEK293 cells; assay type: cell-based; details: 20 μM; for Fold-activation (I activator/I control): whole-cell currents
T1 construct: expressed in transfected cells; host or cells: HEK293 (pIRES2-EGFP vector)
T1 sequence (P97438 1-411 isoform P97438-2 S131C): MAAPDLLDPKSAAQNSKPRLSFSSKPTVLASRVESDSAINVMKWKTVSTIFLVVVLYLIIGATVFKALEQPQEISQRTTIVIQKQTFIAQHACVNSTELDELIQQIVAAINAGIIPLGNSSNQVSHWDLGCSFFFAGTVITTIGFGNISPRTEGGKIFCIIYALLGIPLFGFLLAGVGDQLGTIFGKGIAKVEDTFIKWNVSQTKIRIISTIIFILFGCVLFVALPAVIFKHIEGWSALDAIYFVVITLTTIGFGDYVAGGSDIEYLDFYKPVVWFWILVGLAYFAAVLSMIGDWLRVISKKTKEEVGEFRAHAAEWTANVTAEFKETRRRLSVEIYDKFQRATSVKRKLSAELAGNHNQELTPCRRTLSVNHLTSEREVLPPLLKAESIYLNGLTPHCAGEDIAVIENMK
Text: (§1) Mouse K2P2.1 (TREK-1) (Genbank accession number: NP_034737.2), mouse K2P10.1 (TREK-2) (NM_001316665.1), mouse K2P4.1 (TRAAK) (NM_008431.3), human K2P4.1 (TRAAK) (NM_033310.2) and mouse K2P18.1(TRESK) (NM_207261.3) were used for this study. Point mutations were introduced by site-directed mutagenesis using custom primers and confirmed by sequencing before use. For studies using Xenopus oocytes, K2P channels were subcloned into a previously reported pGEMHE/pMO vector (46). For expression in HEK293 cells, mouse K2P2.1 (TREK-1) and mutants were expressed from a previously described pIRES2-EGFP vector in HEK293 cells (46,47). K2P2.1 (TREK-1) tandems were constructed by connecting the open reading frames for the individual subunits with a linker encoding the […] (SEQ ID NO: 19) sequence. Tandems used for HEK293 cells included an N-terminal HA tag ([…] (SEQ ID NO: 20)) on the first subunit.
(§2) 50% confluent cells were co-transfected (in 35-mm diameter wells) with 10-100 ng of the K2P2.1 plasmid and 400 ng of an eGFP plasmid (for visualization) using LipofectAMINE 2000 (Invitrogen) for 24 h, after which the cells were either plated onto coverslips or the media exchanged with fresh media. Cells were plated onto Matrigel coated coverslips (BD Biosciences) 1-2 hours before experiments.
(§3) Whole-cell patch-clamp experiments with K2P2.1(TREK-1) and mutants were carried out 24-48 h after transfection. Acquisition and analysis for voltage-clamp experiments were performed using pCLAMP10 and an Axopatch 200B amplifier (Molecular Devices). Current-clamp experiments were acquired using an […] amplifier (Molecular Devices). Pipettes were pulled using a Flaming/Brown micropipette puller (P-97, Sutter Instruments) and flame-polished using a MF-830 microforge (Narishige). Electrode resistance after filling with pipette internal solution ranged from 2 to 5 MΩ. Currents were low-pass filtered at 2 kHz and sampled at 10 kHz. Pipette solution contained the following: 145 mM KCl, 3 mM MgCl2, 5 mM EGTA and 20 mM HEPES (pH 7.2 with KOH). Bath solution contained the following: 145 mM NaCl, 5 mM KCl, 1 mM CaCl2, 3 mM MgCl2 and 20 mM HEPES (pH 7.4 with NaOH). K2P2.1 currents were elicited by a 1 s ramp from −100 to +50 mV from a −80 mV holding potential. Current-clamp recordings were taken with no holding current (I=0). Only K2P2.1(TREK-1)^CG* whole-cell patches with basal currents between […] at 0 mV were used Criteria for A286F K2P2.1(TREK-1)^CG*. ML335 or CAT335 were applied at 20 μM in bath solution and were perfused at 3 ml min^−1 until potentiation stabilized (1-3 min). Data were analyzed using Clampfit 11 and GraphPad Prism 9.

K2P2.1 (TREK-1) = target: T2, K2P2.1 (TREK-1) (Mus musculus, UniProt P97438); experiment: Whole-cell patch clamp in transfected HEK293 cells; assay type: cell-based; details: 20 μM; for Fold-activation (I activator/I control): whole-cell currents
T2 construct: expressed in transfected cells; host or cells: Xenopus laevis oocytes injected with mRNA (pGEMHE/pMO vector)
T2 sequence (P97438 1-411 isoform P97438-2): T1 sequence (P97438 1-411 isoform P97438-2 S131C) with C131S
Text: as §1, §2, §3

Fold-activation (I activator/I control) (TREK-1^CG*) [fold] | Fold-activation (I activator/I control) (K2P2.1 (TREK-1)) [fold] | Reversibility of activation on washout (TREK-1^CG*) | Reversibility of activation on washout (K2P2.1 (TREK-1)) | SMILES
3.7 ± 0.4 | 6.2 ± 0.5 |  |  | CS(=O)(=O)Nc1ccc(C(=O)NCc2ccc(Cl)cc2Cl)cc1 [ML335, reference compound]
8.5 ± 1.5 | 1.9 ± 0.2 | irreversible | fully reversible | O=C(NCc1ccc(Cl)cc1Cl)c1ccc(N2C(=O)C=CC2=O)cc1 [CAT335]
